Results taken from ChEMBL document CHEMBL5154722, “Identification of new potent anticancer derivatives through simplifying the core structure and modification on their 14- hydroxyl group from oridonin” (Eur J Med Chem, 2022).
Active and inactive are the calls of the source. The rule behind the calls is not given here.

How the values were obtained:
K562 [1] = experiment: Induction of apoptosis in human K562 cells assessed as increase in Bax level at 25 to 100 nM measured after 48 hrs by Western blot analysis; format: functional, cell-based; conditions: dose 25-100 nM
K562 [2] = experiment: Inhibition of MAPK signaling pathway in human K562 cells assessed as reduction in Raf level measured after 48 hrs by Western blot analysis; format: cell-based; conditions: dose 25-100 nM, DDE = dose-dependent effect
K562 [3] = experiment: Antiproliferative activity against human K562 cells assessed as reduction in cell viability incubated for 72 hrs by MTT assay; format: functional, cell-based; conditions: K562, 72 h
MCF7 = experiment: Antiproliferative activity against human MCF7 cells assessed as reduction in cell viability incubated for 72 hrs by MTT assay; format: functional, cell-based; conditions: MCF7, 72 h
K562 [4] = experiment: Induction of cell cycle arrest in human K562 cells assessed as accumulation of cells at G1 phase at 25 nM measured after 48 hrs by propidium iodide staining-based flow cytometric analysis (reference value: 47.40%); format: functional
[5] = Cytotoxicity against human L02 cells assessed as reduction in cell viability incubated for 72 hrs by MTT assay; format: toxicity, cell-based
K562 [6] = experiment: Induction of cell cycle arrest in human K562 cells assessed as accumulation of cells at G2 phase at 25 nM measured after 48 hrs by propidium iodide staining-based flow cytometric analysis (reference value: 15.30%); format: functional
K562 [7] = experiment: Induction of cell cycle arrest in human K562 cells assessed as accumulation of cells at G1 phase at 50 nM measured after 48 hrs by propidium iodide staining-based flow cytometric analysis (reference value: 47.40%); format: functional
K562 [8] = experiment: Induction of cell cycle arrest in human K562 cells assessed as accumulation of cells at G2 phase at 50 nM measured after 48 hrs by propidium iodide staining-based flow cytometric analysis (reference value: 15.30%); format: functional
K562 [9] = experiment: Induction of cell cycle arrest in human K562 cells assessed as accumulation of cells at G1 phase at 100 nM measured after 48 hrs by propidium iodide staining-based flow cytometric analysis (reference value: 47.40%); format: functional
K562 [10] = experiment: Induction of apoptosis in human K562 cells assessed as viable cells at 25 nM measured after 48 hrs by Annexin V-FITC/PI staining based flow cytometry method (reference value: 94.41%); format: functional; conditions: read-out: Activity
K562 [11] = experiment: Induction of apoptosis in human K562 cells assessed as early apoptotic cells at 25 nM measured after 48 hrs by Annexin V-FITC/PI staining based flow cytometry method (reference value: 1.62%); format: functional
K562 [12] = experiment: Induction of apoptosis in human K562 cells assessed as necrotic cells at 50 nM measured after 48 hrs by Annexin V-FITC/PI staining based flow cytometry method (reference value: 0.44%); format: functional
K562 [13] = experiment: Disruption of mitochondria in human K562 cells assessed as reduction of mitochondrial membrane potential measured after 48 hrs by JC-1 probe based fluorescence based assay; format: functional, cell-based; conditions: dose 25-100 nM, DDE = dose-dependent effect
K562 [14] = experiment: Induction of apoptosis in human K562 cells assessed as intracellular ROS generation measured after 48 hrs by DCFH-DA staining based flow cytometry method; format: functional, cell-based; conditions: dose 25-100 nM, DDE = dose-dependent effect
K562 [15] = experiment: Induction of apoptosis in human K562 cells assessed as reduction in phosphorylated PI3K level measured after 48 hrs by Western blot analysis; format: functional, cell-based; conditions: dose 25-100 nM, DDE = dose-dependent effect
K562 [16] = experiment: Induction of apoptosis in human K562 cells assessed as decrease in Bcl-2 level at 25 to 100 nM measured after 48 hrs by Western blot analysis; format: functional, cell-based; conditions: dose 25-100 nM
K562 [17] = experiment: Induction of apoptosis in human K562 cells assessed as increase in caspase-3 level measured after 48 hrs by Western blot analysis; format: functional, cell-based; conditions: dose 25-100 nM, DDE = dose-dependent effect
K562 [18] = experiment: Induction of apoptosis in human K562 cells assessed as increase in caspase-9 level measured after 48 hrs by Western blot analysis; format: functional, cell-based; conditions: dose 25-100 nM, DDE = dose-dependent effect
H22 [19] = experiment: Antitumor activity against mouse H22 cells allografted in ICR mouse assessed as reduction in tumor weight at 20 mg/kg, iv administered once a day for 21 days after 7 days of tumor implantation; format: functional; design: scale not given: the % may be the effect or the level left; conditions: time 21 day
H22 [20] = experiment: Antitumor activity against mouse H22 cells allografted in ICR mouse assessed as reduction in tumor weight at 10 mg/kg, iv administered once a day for 21 days after 7 days of tumor implantation; format: functional; design: scale not given: the % may be the effect or the level left; conditions: time 21 day
[21] = Toxicity in ICR mouse allografted with mouse H22 cells assessed as change in body weight at 10 to 20 mg/kg, iv administered once a day for 21 days after 7 days of tumor implantation measured every two days; format: organism-based; conditions: in vivo, 504 h, dose 10-20 mg/kg, time 21 day
[22] = Toxicity in ICR mouse allografted with mouse H22 cells assessed as effect on heart morphology at 10 to 20 mg/kg, iv administered once a day for 21 days after 7 days of tumor implantation by H and E staining method; format: organism-based; conditions: in vivo, 504 h, dose 10-20 mg/kg, time 21 day

IC50 (K562 [3]): 90 nM
IC50 (MCF7): 700 nM
SMILES: C=C1C(=O)[C@]23[C@H](OC(=O)/C=C/c4ccncc4)[C@H]1CC[C@H]2[C@]12CCCC(C)(C)[C@H]1[C@H](O)[C@@]3(O)OC2
Activity (K562 [1]): Active
Activity (K562 [2]): Dde
Activity (K562 [4]): 39.5%
IC50 at 72 h [5]: 3180 nM
Activity (K562 [6]): 22.14%
Activity (K562 [7]): 36.76%
Activity (K562 [8]): 26.72%
Activity (K562 [9]): 33.85%
viability at 0.025 µM (K562 [10]): 82.5%
Activity (K562 [11]): 10.6%
Activity (K562 [12]): 0.07%
Activity (K562 [13]): Dde
Activity (K562 [14]): Dde
Activity (K562 [15]): Dde
Activity (K562 [16]): Active
Activity (K562 [17]): Dde
Activity (K562 [18]): Dde
Activity (H22 [19]): 78.92%
Activity (H22 [20]): 74.08%
Activity [21]: Non-Toxic
Activity [22]: Non-Toxic
